# Data: patent US7012081B2, “Anthranyl amides and their use as medicaments” (Schering AG, priority 2000, dated 2006)
# Experiments:
# [1] = target: VEGFR II (KDR) (Homo sapiens, UniProt P35968); assay: Inhibition of the KDR kinase activity (33P-ATP / poly-(Glu4Tyr) phosphocellulose filter assay); assay type: biochemical; conditions: substrate poly-(Glu4Tyr), 10 minutes at room temperature
# Procedure: • Stock solution A: 3 mmol of ATP in water, pH 7.0 (−70° C.) • Stock solution B: g-33P-ATP 1 mCi/100 μl • Stock solution C: poly-(Glu4 Tyr) 10 mg/ml in water Solution for Dilutions • Substrate solvent: 10 mmol of DTT, 10 mmol of manganese chloride, 100 mmol of magnesium chloride • Enzyme solution: 120 mmol of tris/HCl, pH 7.5, 10 μM of sodium vanadium oxide Sample Application 1 Inhibition of the KDR- and FLT-1 Kinase Activity in the Presence of the Compounds According to the Invention
# In a microtiter plate (without protein binding) that tapers to a point, 10 μl of substrate mix (10 μl of volume of ATP stock solution A+25 μCi of g-33P-ATP (about 2.5 μl of stock solution B)+30 μl of poly-(Glu4Tyr) stock solution C+1.21 ml of substrate solvent), 10 μl of inhibitor solution (substances corresponding to the dilutions, 3% DMSO in substrate solvent as a control) and 10 μl of enzyme solution (11.25 μg of enzyme stock solution (KDR or FLT-1 kinase) are added at 4° C. in 1.25 ml of enzyme solution (dilute). It is thoroughly mixed and incubated for 10 minutes at room temperature. Then, 10 μl of stop solution (250 mmol of EDTA, pH 7.0) is added, mixed, and 10 μl of the solution is transferred to a P 81 phosphocellulose filter. Then, it is washed several times in 0.1 M phosphoric acid. The filter paper is dried, coated with Meltilex and measured in a microbeta counter. […]
# Sequence of VEGFR II (KDR) (P35968 20-1356, species assumed): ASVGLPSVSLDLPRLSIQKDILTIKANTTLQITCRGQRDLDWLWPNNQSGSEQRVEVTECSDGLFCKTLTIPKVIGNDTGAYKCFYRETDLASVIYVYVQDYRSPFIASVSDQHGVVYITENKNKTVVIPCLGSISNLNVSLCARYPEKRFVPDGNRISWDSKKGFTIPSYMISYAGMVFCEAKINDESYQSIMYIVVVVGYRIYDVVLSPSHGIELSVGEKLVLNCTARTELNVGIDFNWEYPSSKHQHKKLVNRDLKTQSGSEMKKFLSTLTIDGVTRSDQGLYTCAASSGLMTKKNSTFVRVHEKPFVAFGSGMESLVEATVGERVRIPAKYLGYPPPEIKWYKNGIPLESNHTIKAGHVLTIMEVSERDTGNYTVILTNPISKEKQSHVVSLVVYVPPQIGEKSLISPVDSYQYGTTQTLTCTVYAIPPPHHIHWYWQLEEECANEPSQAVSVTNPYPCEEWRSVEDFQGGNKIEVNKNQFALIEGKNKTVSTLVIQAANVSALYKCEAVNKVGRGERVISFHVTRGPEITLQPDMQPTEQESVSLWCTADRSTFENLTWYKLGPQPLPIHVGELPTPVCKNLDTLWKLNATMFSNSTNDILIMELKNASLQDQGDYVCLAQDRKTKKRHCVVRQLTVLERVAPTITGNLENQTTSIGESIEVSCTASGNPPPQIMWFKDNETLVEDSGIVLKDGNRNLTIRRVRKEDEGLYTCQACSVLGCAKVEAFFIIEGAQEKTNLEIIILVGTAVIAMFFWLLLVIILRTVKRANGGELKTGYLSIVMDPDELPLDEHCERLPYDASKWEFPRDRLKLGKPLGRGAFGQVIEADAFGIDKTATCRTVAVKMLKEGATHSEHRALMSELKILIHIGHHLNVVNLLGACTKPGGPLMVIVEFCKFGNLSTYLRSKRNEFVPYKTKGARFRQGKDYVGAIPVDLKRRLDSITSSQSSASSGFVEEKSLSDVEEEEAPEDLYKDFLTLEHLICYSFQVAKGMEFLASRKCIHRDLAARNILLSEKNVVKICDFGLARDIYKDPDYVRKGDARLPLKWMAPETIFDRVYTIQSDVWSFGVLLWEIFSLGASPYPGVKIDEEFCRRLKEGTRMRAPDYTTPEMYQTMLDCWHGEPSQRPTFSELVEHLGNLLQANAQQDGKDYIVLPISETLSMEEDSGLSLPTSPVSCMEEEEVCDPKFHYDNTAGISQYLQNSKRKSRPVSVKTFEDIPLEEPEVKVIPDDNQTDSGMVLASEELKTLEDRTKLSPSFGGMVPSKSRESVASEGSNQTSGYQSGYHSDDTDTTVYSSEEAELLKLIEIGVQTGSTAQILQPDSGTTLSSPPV
melting point [°C],IC50 [1] [nM],SMILES
140.4,50,O=C(Nc1cc2ccccc2cn1)c1ccccc1NCC1CCOCC1 [Example 1.1]
,20,O=C1CCC(CNc2ccccc2C(=O)Nc2cc3ccccc3cn2)CC1 [Example 2.0]
